target: Human Cav3.1 (Homo sapiens (Human), UniProt O43497); experiment: Human Cav3.1 calcium channel patch clamp assay (SyncroPatch 384PE, HEK-293 natClytin/TASK1+Cav3.1 cell line); format: cell-based; conditions: patch clamp, HEK-293 natClytin/TASK1+Cav3.1 cells; class symbols; read-out: Human Cav3.1 IC50
Experimental: Pulse generation and data collection were performed with PatchController384 V1.3.0 and DataController384 V1.2.1 (Nanion Technologies). Off-line analysis was performed using Excel and Graphpad Prism (V 8.4.2) with complete data files uploaded to Dotmatics. The access resistance and apparent membrane capacitance were estimated using built-in protocols. Current was recorded in whole cell configuration from a population of cells. The cells were lifted, triturated, and resuspended at 800,000 cells/ml. The cells were allowed to recover in the cell hotel prior to experimentation. Currents were recorded at room temperature. The external solution contained the following (in mM): NaCl 80, NMDG 60, KCl 4, MgCl2 1, CaCl2 6, glucose 5 and HEPES 10 (pH=7.4, Osmolarity ˜300 mOsm). The extracellular solution was used as the wash, reference and compound delivery solution. […] The compound plate was created at 2× concentrated in the extracellular solution. The compound was diluted to 1:2 when added to the recording well. The amount of DMSO in the extracellular solution was held constant at the level used for the highest tested concentration. For the voltage clamp experiments on Cav3.1, data were sampled at 10 KHz. After establishment of the seal and the passage in the whole cell configuration, the cells were held at −120 mV. Cav3.1 current was evoked using a 100 ms step to −20 mV (to measure resting state block), followed by a 1600 ms step to −65 mV and a second 100 ms step to −20 mV (to measure voltage dependent block). The voltage protocol was applied every 15 seconds in the absence and in the presence of the compounds under investigation. […] Current amplitude (pA) was measured in the peak 1 and 2. The average of last 3 sweeps of each liquid period (vehicle, compound under investigation, full block) was calculated. Nickel-sensitive current was used to calculate the % of inhibition in the presence of the compound under investigation.
Pulse generation and data collection were performed with PatchController384 V1.3.0 and DataController384 V1.2.1 (Nanion Technologies). Off-line analysis was performed using Excel and Graphpad Prism (V 8.4.2) with complete data files uploaded to Dotmatics. The access resistance and apparent membrane capacitance were estimated using built-in protocols. Current was recorded in whole cell configuration from a population of cells.
The cells were lifted, triturated, and resuspended at 800,000 cells/ml. The cells were allowed to recover in the cell hotel prior to experimentation. Currents were recorded at room temperature. The external solution contained the following (in mM): NaCl 80, NMDG 60, KCl 4, MgCl2 1, CaCl2 6, glucose 5 and HEPES 10 (pH=7.4, Osmolarity ˜300 mOsm). The extracellular solution was used as the wash, reference and compound delivery solution.
The compound plate was created at 2× concentrated in the extracellular solution. The compound was diluted to 1:2 when added to the recording well. The amount of DMSO in the extracellular solution was held constant at the level used for the highest tested concentration. For the voltage clamp experiments on Cav3.1, data were sampled at 10 KHz. After establishment of the seal and the passage in the whole cell configuration, the cells were held at −120 mV. Cav3.1 current was evoked using a 100 ms step to −20 mV (to measure resting state block), followed by a 1600 ms step to −65 mV and a second 100 ms step to −20 mV (to measure voltage dependent block). The voltage protocol was applied every 15 seconds in the absence and in the presence of the compounds under investigation. […] Current amplitude (pA) was measured in the peak 1 and 2. The average of last 3 sweeps of each liquid period (vehicle, compound under investigation, full block) was calculated. Nickel-sensitive current was used to calculate the % of inhibition in the presence of the compound under investigation.

Human Cav3.1, sequence (O43497 whole entry): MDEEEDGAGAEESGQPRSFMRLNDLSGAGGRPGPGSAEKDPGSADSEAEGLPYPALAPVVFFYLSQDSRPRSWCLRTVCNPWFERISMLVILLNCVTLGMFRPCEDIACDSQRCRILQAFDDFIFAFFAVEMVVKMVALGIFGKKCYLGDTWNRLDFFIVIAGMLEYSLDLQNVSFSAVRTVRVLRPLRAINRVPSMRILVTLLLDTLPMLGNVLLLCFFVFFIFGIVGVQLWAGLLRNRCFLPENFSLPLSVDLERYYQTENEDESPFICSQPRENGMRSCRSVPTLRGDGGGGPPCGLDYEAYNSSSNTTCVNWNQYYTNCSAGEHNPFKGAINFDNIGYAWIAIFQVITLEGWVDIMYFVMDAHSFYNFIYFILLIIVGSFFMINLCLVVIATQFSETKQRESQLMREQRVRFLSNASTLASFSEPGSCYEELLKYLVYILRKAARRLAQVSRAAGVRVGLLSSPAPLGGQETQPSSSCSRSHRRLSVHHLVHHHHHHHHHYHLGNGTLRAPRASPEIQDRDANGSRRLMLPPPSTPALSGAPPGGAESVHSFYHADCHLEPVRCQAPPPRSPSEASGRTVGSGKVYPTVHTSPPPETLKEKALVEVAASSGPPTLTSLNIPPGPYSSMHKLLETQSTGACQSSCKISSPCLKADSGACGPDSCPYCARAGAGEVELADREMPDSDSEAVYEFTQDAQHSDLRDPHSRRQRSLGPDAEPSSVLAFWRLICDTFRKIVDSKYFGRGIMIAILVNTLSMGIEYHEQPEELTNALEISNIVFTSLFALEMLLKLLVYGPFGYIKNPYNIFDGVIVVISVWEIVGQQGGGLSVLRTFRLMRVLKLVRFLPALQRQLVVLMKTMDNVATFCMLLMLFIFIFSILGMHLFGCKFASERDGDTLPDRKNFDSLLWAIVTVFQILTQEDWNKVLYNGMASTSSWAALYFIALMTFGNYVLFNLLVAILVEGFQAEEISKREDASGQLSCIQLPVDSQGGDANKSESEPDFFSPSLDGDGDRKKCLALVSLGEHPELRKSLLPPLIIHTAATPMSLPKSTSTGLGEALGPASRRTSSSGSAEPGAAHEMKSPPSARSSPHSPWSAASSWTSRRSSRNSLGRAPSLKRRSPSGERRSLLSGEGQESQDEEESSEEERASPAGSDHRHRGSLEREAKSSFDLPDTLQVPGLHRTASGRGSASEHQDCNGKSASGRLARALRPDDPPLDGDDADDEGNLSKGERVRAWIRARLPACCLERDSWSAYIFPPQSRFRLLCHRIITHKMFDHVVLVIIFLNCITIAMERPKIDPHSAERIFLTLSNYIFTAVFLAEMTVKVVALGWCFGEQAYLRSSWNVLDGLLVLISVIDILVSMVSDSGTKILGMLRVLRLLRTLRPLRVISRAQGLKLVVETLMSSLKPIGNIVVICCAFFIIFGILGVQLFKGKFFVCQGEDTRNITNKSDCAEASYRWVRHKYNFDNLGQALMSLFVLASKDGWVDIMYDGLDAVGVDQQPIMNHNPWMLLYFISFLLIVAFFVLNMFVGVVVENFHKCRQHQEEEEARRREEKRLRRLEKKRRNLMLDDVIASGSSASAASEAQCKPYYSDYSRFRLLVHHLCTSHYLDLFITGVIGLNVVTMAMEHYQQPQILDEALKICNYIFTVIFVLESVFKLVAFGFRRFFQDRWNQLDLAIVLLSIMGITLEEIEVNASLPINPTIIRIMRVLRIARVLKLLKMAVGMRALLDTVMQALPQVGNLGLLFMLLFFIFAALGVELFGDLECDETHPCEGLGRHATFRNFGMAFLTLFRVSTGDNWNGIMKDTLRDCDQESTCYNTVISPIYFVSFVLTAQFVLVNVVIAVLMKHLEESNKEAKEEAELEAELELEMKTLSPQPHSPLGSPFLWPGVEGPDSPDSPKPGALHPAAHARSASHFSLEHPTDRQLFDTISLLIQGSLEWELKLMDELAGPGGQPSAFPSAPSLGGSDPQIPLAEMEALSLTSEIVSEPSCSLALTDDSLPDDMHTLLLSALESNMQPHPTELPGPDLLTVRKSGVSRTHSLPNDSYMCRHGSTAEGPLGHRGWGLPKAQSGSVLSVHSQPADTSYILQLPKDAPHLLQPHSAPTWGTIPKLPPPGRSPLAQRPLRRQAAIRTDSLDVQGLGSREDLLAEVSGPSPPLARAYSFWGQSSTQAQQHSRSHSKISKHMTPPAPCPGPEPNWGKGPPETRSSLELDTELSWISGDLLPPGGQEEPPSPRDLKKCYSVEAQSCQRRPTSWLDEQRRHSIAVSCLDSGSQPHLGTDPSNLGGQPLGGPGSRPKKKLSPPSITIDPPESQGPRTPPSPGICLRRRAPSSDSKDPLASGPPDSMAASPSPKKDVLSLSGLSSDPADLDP

| IC50 | Structure (SMILES) |
| --- | --- |
| < 1000 nM | O=C(Nc1cc(F)cc(C(F)F)c1)C1CCC2(CC1)CN(CC1CCC(F)(F)CC1)C2 [Example 28] |
| 1000 to 10000 nM | CC(C)(C)NC(=O)CN1CC2(CCC(C(=O)NC34CC5CC(CC(C5)C3)C4)CC2)C1 [Example 26] |
| < 1000 nM | O=C(Nc1cc(F)cc(C(F)F)c1)C1CCC2(CC1)CN(CCC1CCC(F)(F)CC1)C2 [Example 37] |
| 1000 to 10000 nM | O=C(Nc1cc(F)cc(Cl)c1)C1CCC2(CC1)CN(Cc1ccc(Cl)cc1)C2 [Example 11] |
| < 1000 nM | CC(C)(C)CCN1CC2(CCC(C(=O)Nc3cc(F)cc(Cl)c3)CC2)C1 [Example 22] |
| < 1000 nM | CC1(NC(=O)CN2CC3(CCC(C(=O)Nc4cc(F)cc(C(F)F)c4)CC3)C2)CCC1 [Example 29] |
| < 1000 nM | CC(C)(C)CCN1CC2(CCC(C(=O)Nc3cc(F)cc(C(F)F)c3)CC2)C1 [Example 33] |
| < 1000 nM | CC(C)(C)NC(=O)CN1CC2(CCC(C(=O)Nc3cc(F)cc(Cl)c3)CC2)C1 [Example 25] |
| < 1000 nM | CC1(CCN2CC3(CCC(C(=O)Nc4cc(F)cc(C(F)F)c4)CC3)C2)CC1 [Example 38] |
| < 1000 nM | CC(C)(C)NC(=O)CN1CC2(CCC(C(=O)NC34CCC(CC3)CC4)CC2)C1 [Example 8] |
| < 1000 nM | CC(C)(C)NC(=O)CN1CC2(CCC(C(=O)Nc3cc(F)cc(C(F)(F)F)c3)CC2)C1 [Example 4] |

| Structure (SMILES) | IC50 |
| --- | --- |
| CC(C)(C)NC(=O)CN1CC2(CCC(C(=O)Nc3cc(Cl)cc(Cl)c3)CC2)C1 [Example 1, 2-(2-(tert-butylamino)-2-oxoethyl)-N-(3,5-dichlorophenyl)-2-azaspiro[3.5]nonane-7-carboxamide] | < 1000 nM |

same assay, conditions: voltage dependent block (VDB); read-out: Cav3.1 (VDB) IC50

| IC50 | Structure (SMILES) |
| --- | --- |
| 1040 nM | CN(CCN1CC2(CCC(C(=O)Nc3cc(F)cc(C(F)F)c3)CC2)C1)C(=O)C1(C)CC1 [Example 72] |
| 370 nM | O=C(Nc1cc(F)cc(C(F)F)c1)C1CCC2(CC1)CN(CC1CCC(F)(F)CC1)C2 [Example 28] |
| 991 nM | Cc1cc(Cl)cc(NC(=O)C2CCC3(CC2)CN(CC2(C#N)CC2)C3)c1 [Example 136] |
| 297 nM | O=C(CN1CC2(CCC(C(=O)Nc3ccc(F)c(OC(F)(F)F)c3)CC2)C1)NC1(C(F)(F)F)CC1 [Example 123] |
| 221 nM | Cc1cc(F)cc(NC(=O)C2CCC3(CC2)CN(CC(=O)NC2(C(F)(F)F)CC2)C3)c1 [Example 117] |
| 537 nM | N#CC1(CN2CC3(CCC(C(=O)Nc4cc(F)cc(C(F)F)c4)CC3)C2)CCC(F)(F)CC1 [Example 99] |
| 572 nM | N#CC1(CN2CC3(CCC(C(=O)Nc4cc(Cl)cc(Cl)c4)CC3)C2)CC1 [Example 128] |
| 300 nM | COc1cc(NC(=O)C2CCC3(CC2)CN(CC(=O)NC(C)(C)C)C3)ccc1F [Example 156] |
| 323 nM | O=C(Nc1cc(F)cc(C(F)F)c1)C1CCC2(CC1)CN(CCC1CCC(F)(F)CC1)C2 [Example 37] |
| 307 nM | CC1(OC(=O)NCCN2CC3(CCC(C(=O)Nc4cc(F)cc(Cl)c4)CC3)C2)CC1 [Example 81] |
| 191 nM | COCC(C)(C)NC(=O)CN1CC2(CCC(C(=O)Nc3cc(F)cc(C(F)F)c3)CC2)C1 [Example 45] |
| 238 nM | COc1cc(F)cc(NC(=O)C2CCC3(CC2)CN(CC(=O)NC2(C(F)(F)F)CC2)C3)c1 [Example 82] |
| 469 nM | CC(C)(C)NC(=O)CN1CC2(CCC(F)(C(=O)Nc3cc(F)cc(C(F)F)c3)CC2)C1 [Example 51] |
| 440 nM | O=C(Nc1cc(F)cc(Cl)c1)C1CCC2(CC1)CN(CC1CCC(F)(F)CC1)C2 [Example 61] |
| 176 nM | CC1(C)COCCN1C(=O)CN1CC2(CCC(C(=O)Nc3cc(F)cc(C(F)F)c3)CC2)C1 [Example 44] |
| 739 nM | CC(C)(C)S(=O)(=O)CCN1CC2(CCC(C(=O)Nc3cccc(Cl)c3)CC2)C1 [Example 106] |
| 529 nM | N#CC1(CN2CC3(CCC(C(=O)Nc4cc(F)cc(Cl)c4)CC3)C2)CC1 [Example 118] |
| 435 nM | CC(C)(NC(=O)CN1CC2(CCC(CNC(=O)c3cccc(Cl)c3)CC2)C1)C(F)(F)F [Example 146] |
| 162 nM | COc1cc(NC(=O)C2CCC3(CC2)CN(CC(=O)NC2(C(F)(F)F)CC2)C3)ccc1Cl [Example 158] |
| 932 nM | O=C(CN1CC2(CCC(C(=O)Nc3cccc(C(F)F)c3)CC2)C1)NC1(C(F)(F)F)CC1 [Example 111] |
| 59.7 nM | O=C(CN1CC2(CCC(C(=O)Nc3cc(F)cc(Cl)c3)CC2)C1)NC1(C(F)(F)F)CC1 [Example 58] |
| 550 nM | COc1cc(F)cc(NC(=O)C2CCC3(CC2)CN(CC2(C#N)CCC(F)(F)CC2)C3)c1 [Example 97] |
| 372 nM | CC(C)(NC(=O)CN1CC2(CCC(C(=O)Nc3cccc(C(F)(F)F)c3)CC2)C1)C(F)(F)F [Example 66] |
| 130 nM | O=C(Nc1cc(F)cc(Cl)c1)C1CCC2(CC1)CN(CC1(O)CCC(F)(F)CC1)C2 [Example 60] |
| 129 nM | COc1cc(NC(=O)C2CCC3(CC2)CN(CC(=O)NC(C)(C)C)C3)ccc1Cl [Example 157] |
| 1500 nM | N#CC1(CN2CC3(CCC(C(=O)Nc4cc(F)cc(C(F)F)c4)CC3)C2)CC1 [Example 134] |

| IC50 | Structure (SMILES) |
| --- | --- |
| 344 nM | O=C(CN1CC2(CCC(C(=O)Nc3cc(F)cc(C(F)F)c3)CC2)C1)NC1(C(F)(F)F)COC1 [Example 86] |
| 691 nM | Cc1cccc(NC(=O)C2CCC3(CC2)CN(CC(=O)NC2(C(F)(F)F)CC2)C3)c1 [Example 116] |
| 814 nM | COc1cc(F)cc(NC(=O)C2CCC3(CC2)CN(CC2(C#N)CCCCC2)C3)c1 [Example 96] |
| 231 nM | O=C(CN1CC2(CCC(C(=O)Nc3cccc(OC(F)F)c3)CC2)C1)NC1(C(F)(F)F)CCC1 [Example 109] |
| 1290 nM | CC(C)(C)CCN1CC2(CCC(C(=O)NC34CC5CC(CC(C5)C3)C4)CC2)C1 [Example 154] |
| 102 nM | CC1(NC(=O)CN2CC3(CCC(C(=O)Nc4cc(F)cc(C(F)F)c4)CC3)C2)CCC1 [Example 29] |
| 583 nM | CC(C)(C)C(O)CN1CC2(CCC(C(=O)NC34CC5CC(CC(C5)C3)C4)CC2)C1 (centres unmarked) [Example 152] |
| 339 nM | CC(C)(C)CCN1CC2(CCC(C(=O)Nc3cc(F)cc(C(F)F)c3)CC2)C1 [Example 33] |
| 550 nM | CC1(S(=O)(=O)NCCN2CC3(CCC(C(=O)Nc4cc(F)cc(C(F)F)c4)CC3)C2)CC1 [Example 76] |
| 706 nM | N#CC1(CN2CC3(CCC(C(=O)Nc4cccc(Cl)c4)CC3)C2)CCC(F)(F)CC1 [Example 110] |
| 149 nM | O=C(CN1CC2(CCC(C(=O)Nc3ccc(F)c(OC(F)F)c3)CC2)C1)NC1(C(F)(F)F)CC1 [Example 124] |
| 428 nM | O=C(Nc1cc(F)cc(C(F)F)c1)C1CCC2(CC1)CN(CCS(=O)(=O)c1ccccc1)C2 [Example 80] |
| 174 nM | CC(C)(C)NC(=O)CN1CC2(CCC(C(=O)Nc3cc(F)cc(Cl)c3)CC2)C1 [Example 25] |
| 415 nM | [2H]C([2H])([2H])C(NC(=O)CN1CC2(CCC(C(=O)Nc3cc(F)cc(OC)c3)CC2)C1)(C([2H])([2H])[2H])C([2H])([2H])[2H] [Example 113] |
| 296 nM | N#CC1(CN2CC3(CCC(C(=O)Nc4cc(F)cc(Cl)c4)CC3)C2)CCCC1 [Example 130] |
| 941 nM | O=C(Nc1cc(F)cc(Cl)c1)C1CCC2(CC1)CN(CC(F)(F)C1CCCCC1)C2 [Example 74] |
| 333 nM | O=C(Nc1cc(F)cc(Cl)c1)C1CCC2(CC1)CN(CC1(F)CCC(F)(F)CC1)C2 [Example 73] |
| 439 nM | O=C(Nc1cc(F)cc(Cl)c1)C1CCC2(CC1)CN(CC(F)C1CCCC1)C2 (centres unmarked) [Example 77] |
| 1960 nM | O=C(CN1CC2(CCC(C(=O)NC34CCC(CC3)C4)CC2)C1)NC1(C(F)(F)F)CC1 [Example 150] |
| 2270 nM | COc1cc(F)cc(NC(=O)C2CCC3(CC2)CN(CC2(C#N)CC2)C3)c1 [Example 138] |
| 367 nM | CC1(CCN2CC3(CCC(C(=O)Nc4cc(F)cc(C(F)F)c4)CC3)C2)CC1 [Example 38] |
| 663 nM | CC(C)(C)NC(=O)CN1CC2(CCC(C(=O)NC34CCC(CC3)CC4)CC2)C1 [Example 8] |
| 219 nM | O=C(CN1CC2(CCC(C(=O)Nc3ccc(F)c(Cl)c3)CC2)C1)NC1(C(F)(F)F)CC1 [Example 115] |
| 1430 nM | COc1cccc(NC(=O)C2CCC3(CC2)CN(CC(=O)NC2(C(F)(F)F)CC2)C3)c1 [Example 112] |
| 1010 nM | N#CC1(CN2CC3(CCC(C(=O)Nc4cc(F)cc(OC(F)F)c4)CC3)C2)CC1 [Example 135] |
| 254 nM | CC(C)(C)NC(=O)CN1CC2(CCC(C(=O)Nc3cc(F)cc(C(F)(F)F)c3)CC2)C1 [Example 4] |

| Structure (SMILES) | IC50 |
| --- | --- |
| CC(C)(C)NC(=O)CN1CC2(CCC(C(=O)Nc3cc(Cl)cc(Cl)c3)CC2)C1 [Example 1, 2-(2-(tert-butylamino)-2-oxoethyl)-N-(3,5-dichlorophenyl)-2-azaspiro[3.5]nonane-7-carboxamide] | 176 nM |

— patent US20250214932A1, “T-TYPE CALCIUM CHANNEL MODULATORS COMPRISING AN AZASPIRONONANE CORE AND METHODS OF USE THEREOF” (Praxis Precision Medicines, Inc., priority 2022, published 2025)
